Laboratory results taken from patent US10098870B2 (JENKEM TECHNOLOGY CO., LTD. (BEIJING), priority 2013, dated 2018).
“Also recorded” adds a separate entry of the source. Like-named read-outs stand apart in the source and are kept apart here.

Tests used:
[1] = Body weight, survival and tolerance of mice bearing Hep3B (Example 7); assay type: in vivo, mouse; conditions: 15 mg/kg i.v. (QD×5)×2W, mean ± SE
[2] = system: human hepatoma cell Hep3B; assay: Anti-tumor effect on xenograft tumor model of Hep3B in immune deficiency mice (Example 7); conditions: for Tumor volume: mean ± SE
[3] = Body weight, survival and tolerance of mice bearing plc/prf/5 (Example 6); assay type: in vivo, nude mouse; conditions: for Body weight of animal: 25 mg/kg i.v. QD×5, mean ± SE
Excerpt: Wherein QW×4W represents intravenous injection once a week for 4 weeks, BIW×4W represents intravenous injection […] for 4 weeks, the same below. (2) Experimental Results

[4] = system: human hepatoma cell plc/prf/5; assay: Anti-tumor effect on xenograft tumor model of plc/prf/5 in nude mice (Example 6); conditions: for Tumor volume: 25 mg/kg i.v. QD×5, mean ± SE
Excerpt: 10 days later the mean tumor volume was desired to reach about 161 mm^3, the mice with a smaller or larger tumor were removed and the remaining 24 mice were divided into groups randomly according to tumor volume and administrated.
Wherein QW×4W represents intravenous injection once a week for 4 weeks, BIW×4W represents intravenous injection once every two weeks for 4 weeks, the same below.

[5] = Body weight, survival and tolerance of mice bearing H460 (Example 8); conditions: 15 mg/kg i.v. BIW×3W; for Body weight of animal: mean ± SE
Experimental: (§1) 5.0×10^6 of H460 tumor cells were suspended in 0.1 ml of PBS, inoculated to each nude mouse at the right shoulder, and there were totally 34 mice inoculated. 8 days later the mean tumor volume was desired to reach about 143 mm^3, the mice with a smaller or larger tumor were removed and the remaining 24 mice were divided into groups randomly according to tumor volume and administrated.

[6] = system: Calu-6 human lung cancer cell; assay: Anti-tumor effect on xenograft tumor model of Calu-6 in nude mice (Example 9);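 as to all read-outs here: each nude mouse received 5.0×10^6 Calu-6 cells implanted at the right shoulder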; conditions: 15 mg/kg i.v. BIW×4W; for Tumor volume: mean ± SE
Experimental: Calu-6 cells were cultured with a monolayer in vitro in MEM medium supplied with heat-inactivated fetal bovine serum with a volume ratio of 10%, and an incubator at 37° C. with the air containing CO2 with a proportion of 5%. The tumor cells were passaged with digestion by trypsin-EDTA twice a week. The cells in the exponential growth phase were collected, counted, and used for inoculation.
(§2) 5.0×10^6 of Calu-6 tumor cells were suspended in 0.1 ml of PBS, inoculated to each nude mouse at the right shoulder, and there were totally 34 mice inoculated.

[7] = Body weight, survival and tolerance of mice bearing A549 (Example 10);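 as to all read-outs here: nude mice, each given 1.0×10^7 A549 tumor cells in the right shoulder region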; conditions: 15 mg/kg i.v. BIW×4W; for Body weight of animal: mean ± SE
Experimental: (§3) 1.0×10^7 of A549 tumor cells were suspended in 0.1 ml of PBS, inoculated to each nude mouse at the right shoulder, and there were totally 36 mice inoculated.

[8] = system: H460 human non-small cell lung cancer cells; conditions: 15 mg/kg i.v. BIW×3W; for Tumor volume: mean ± SE
Experimental: as §1

[9] = system: A549 human non-small cell lung cancer cells; assay: Anti-tumor effect on xenograft tumor model of A549 in nude mice (Example 10);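 as to all read-outs here: nude mice bearing A549 xenografts established by inoculating 1.0×10^7 cells in PBS at the right shoulder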; conditions: 15 mg/kg i.v. BIW×4W; for Tumor volume: mean ± SE
Experimental: A549 cells were cultured with a monolayer in vitro in RPMI1640 medium supplied with heat-inactivated fetal bovine serum with a volume ratio of 10%, and an incubator at 37° C. with the air containing CO2 with a proportion of 5%. The tumor cells were passaged with digestion by trypsin-EDTA twice a week. The cells in the exponential growth phase were collected, counted, and used for inoculation.
as §3

[10] = Body weight, survival and tolerance of mice bearing Calu-6 (Example 9);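 as to all read-outs here: nude mice bearing Calu-6 tumours, established by implanting 5.0×10^6 cells at the right shoulder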; conditions: 15 mg/kg i.v. BIW×4W; for Body weight of animal: mean ± SE
Experimental: as §2

[11] = system: human hepatoma cell plc/prf/5; assay: Anti-tumor effect on subcutaneous transplantation tumor model of plc/prf/5 in NOD/SCID mice (Example 5); assay type: in vivo, NOD/SCID mouse; conditions: for Tumor volume: 10 mg/kg (counted with rapamycin) i.v. Q2W×2W, mean ± SE
Experimental: The tumor cells were passaged with digestion by trypsin-EDTA twice a week. The cells in the exponential growth phase were collected, counted, and used for inoculation.
1×10^7 of plc/prf/5 tumor cells were suspended in 0.1 ml of mixed solution (PBS:Matrigel=4:1), inoculated to each NOD/SCID mouse at the right shoulder.
Wherein Q2W×2W represents intravenous injection […] for 2 weeks, the same below. (2) Experimental Results

[12] = 15 mg/kg i.v. (QD×5)×2W, vs physiological saline
[13] = 44th day, 15 mg/kg i.v. (QD×5)×2W, Mean ± SEM
[14] = 5-FU 25 mg/kg, LPR-2 30 and 45 mg/kg

O=c1[nH]cc(F)c(=O)[nH]1 [5-FU, reference compound]
Body weight of animal ([1]; day 20 after inoculation): 19.4 ± 0.4 g | Body weight of animal ([1]; day 23 after inoculation): 19.7 ± 0.3 g | Body weight of animal ([1]; day 27 after inoculation): 18.6 ± 0.3 g | Body weight of animal ([1]; day 30 after inoculation): 18.1 ± 0.3 g | Body weight of animal ([1]; day 34 after inoculation): 18.5 ± 0.4 g | Body weight of animal ([1]; day 37 after inoculation): 18.3 ± 0.3 g | Body weight of animal ([1]; day 41 after inoculation): 18.1 ± 0.3 g | TGD (to 1,000 mm^3) ([2]; 15 mg/kg i.v. (QD×5)×2W): 6 | T/C (%) RTV [2, 12]: 106% | T/C (%) TW [2, 12]: 109% | anti-tumor effect (in words) ([2]; 5-FU 15 mg/kg, LPR-2 30 and 45 mg/kg): not significant | RTV [2, 13]: 4.53 ± 0.32 | Tumor weight [2, 13]: 1695 ± 289 mg | Tumor volume ([2]; day 16 after inoculation, 15 mg/kg i.v. (QD×5)×2W): 453 ± 66 mm^3 | Tumor volume ([2]; day 20 after inoculation, 15 mg/kg i.v. (QD×5)×2W): 567 ± 84 mm^3 | Tumor volume ([2]; day 23 after inoculation, 15 mg/kg i.v. (QD×5)×2W): 667 ± 105 mm^3 | Tumor volume ([2]; day 27 after inoculation, 15 mg/kg i.v. (QD×5)×2W): 820 ± 149 mm^3 | Tumor volume ([2]; day 30 after inoculation, 15 mg/kg i.v. (QD×5)×2W): 850 ± 150 mm^3 | Tumor volume ([2]; day 34 after inoculation, 15 mg/kg i.v. (QD×5)×2W): 1,123 ± 226 mm^3 | Tumor volume ([2]; day 37 after inoculation, 15 mg/kg i.v. (QD×5)×2W): 1,500 ± 295 mm^3 | Tumor volume ([2]; day 41 after inoculation, 15 mg/kg i.v. (QD×5)×2W): 1,793 ± 342 mm^3 | Tumor volume ([2]; day 44 after inoculation, 15 mg/kg i.v. (QD×5)×2W): 2,114 ± 395 mm^3 | toxicity / tolerance (in words) [3, 14]: so toxic with this dosage that all the animals died; also recorded: a significant toxicity and the whole group of animals died | Body weight of animal ([3]; day 10 after inoculation): 19.6 ± 0.3 g | Body weight of animal ([3]; day 17 after inoculation): 14.7 ± 0.5 g | anti-tumor effect (in words) [4, 14]: obvious anti-tumor effect | Tumor volume ([4]; day 10 after inoculation): 170 ± 16 mm^3 | Tumor volume ([4]; day 13 after inoculation): 118 ± 7 mm^3 | Tumor volume ([4]; day 17 after inoculation): 69 ± 4 mm^3

CC(=O)O[C@H]1C(=O)[C@@]2(C)[C@H]([C@H](OC(=O)c3ccccc3)[C@]3(O)C[C@H](OC(=O)[C@H](O)[C@@H](NC(=O)c4ccccc4)c4ccccc4)C(C)=C1C3(C)C)[C@]1(OC(C)=O)CO[C@@H]1C[C@@H]2O [Paclitaxel, reference compound]
N, number of surviving animals after completion of the treatment ([5]; 6 animals per group): 6 | Body weight of animal ([5]; day 8 after inoculation): 20.1 ± 0.4 g | Body weight of animal ([5]; day 12 after inoculation): 19.9 ± 0.3 g | Body weight of animal ([5]; day 15 after inoculation): 19.8 ± 0.2 g | Body weight of animal ([5]; day 19 after inoculation): 19.5 ± 0.2 g | Body weight of animal ([5]; day 22 after inoculation): 18.6 ± 0.3 g | TGD (to 1,000 mm^3) [6]: >8 | T/C (%) RTV ([6]; vs physiological saline): 16% | T/C (%) TW ([6]; vs physiological saline): 13% | RTV ([6]; 42nd day, Mean ± SEM): 2.31 ± 0.53 | Tumor weight ([6]; 42nd day, Mean ± SEM): 202 ± 52 mg | Tumor volume ([6]; day 14 after inoculation): 138 ± 14 mm^3 | Tumor volume ([6]; day 17 after inoculation): 159 ± 18 mm^3 | Tumor volume ([6]; day 21 after inoculation): 222 ± 23 mm^3 | Tumor volume ([6]; day 24 after inoculation): 219 ± 26 mm^3 | Tumor volume ([6]; day 28 after inoculation): 229 ± 37 mm^3 | Tumor volume ([6]; day 31 after inoculation): 264 ± 53 mm^3 | Tumor volume ([6]; day 35 after inoculation): 281 ± 59 mm^3 | Tumor volume ([6]; day 38 after inoculation): 282 ± 60 mm^3 | Tumor volume ([6]; day 42 after inoculation): 314 ± 72 mm^3 | N, number of surviving animals after completion of the treatment ([7]; 6 animals per group): 6 | Body weight of animal ([7]; day 24 after inoculation): 20.6 ± 0.4 g | Body weight of animal ([7]; day 28 after inoculation): 20.8 ± 0.4 g | Body weight of animal ([7]; day 31 after inoculation): 20.6 ± 0.4 g | Body weight of animal ([7]; day 35 after inoculation): 20.8 ± 0.5 g | Body weight of animal ([7]; day 38 after inoculation): 20.8 ± 0.6 g | Body weight of animal ([7]; day 42 after inoculation): 21.6 ± 0.6 g | Body weight of animal ([7]; day 45 after inoculation): 21.3 ± 0.6 g | Body weight of animal ([7]; day 49 after inoculation): 21.3 ± 0.7 g | Body weight of animal ([7]; day 52 after inoculation): 21.8 ± 0.6 g | TGD (to 1,000 mm^3) [8]: 7 | T/C (%) RTV ([8]; vs physiological saline): 59% | T/C (%) TW ([8]; vs physiological saline): 66% | RTV ([8]; 29th day, Mean ± SEM): 9.03 ± 0.93 | Tumor weight ([8]; 29th day, Mean ± SEM): 1053 ± 146 mg | Tumor volume ([8]; day 8 after inoculation): 143 ± 15 mm^3 | Tumor volume ([8]; day 12 after inoculation): 295 ± 42 mm^3 | Tumor volume ([8]; day 15 after inoculation): 400 ± 70 mm^3 | Tumor volume ([8]; day 19 after inoculation): 519 ± 97 mm^3 | Tumor volume ([8]; day 22 after inoculation): 680 ± 110 mm^3 | Tumor volume ([8]; day 26 after inoculation): 944 ± 117 mm^3 | Tumor volume ([8]; day 29 after inoculation): 1,281 ± 184 mm^3 | TGD (to 1,000 mm^3) [9]: >7 | T/C (%) RTV ([9]; vs physiological saline): 24% | T/C (%) TW ([9]; vs physiological saline): 19% | RTV ([9]; 52nd day, Mean ± SEM): 2.35 ± 0.16 | Tumor weight ([9]; 52nd day, Mean ± SEM): 253 ± 52 mg | Tumor volume ([9]; day 24 after inoculation): 138 ± 13 mm^3 | Tumor volume ([9]; day 28 after inoculation): 196 ± 24 mm^3 | Tumor volume ([9]; day 31 after inoculation): 230 ± 35 mm^3 | Tumor volume ([9]; day 35 after inoculation): 260 ± 49 mm^3 | Tumor volume ([9]; day 38 after inoculation): 265 ± 48 mm^3 | Tumor volume ([9]; day 42 after inoculation): 294 ± 41 mm^3 | Tumor volume ([9]; day 45 after inoculation): 327 ± 54 mm^3 | Tumor volume ([9]; day 49 after inoculation): 342 ± 54 mm^3 | Tumor volume ([9]; day 52 after inoculation): 331 ± 49 mm^3 | N, number of surviving animals after completion of the treatment ([10]; 6 animals per group): 6 | Body weight of animal ([10]; day 17 after inoculation): 20.5 ± 0.2 g | Body weight of animal ([10]; day 21 after inoculation): 20.5 ± 0.3 g | Body weight of animal ([10]; day 24 after inoculation): 19.6 ± 0.4 g | Body weight of animal ([10]; day 28 after inoculation): 19.8 ± 0.4 g | Body weight of animal ([10]; day 31 after inoculation): 19.7 ± 0.6 g | Body weight of animal ([10]; day 35 after inoculation): 20.1 ± 0.5 g | Body weight of animal ([10]; day 38 after inoculation): 20.1 ± 0.4 g

Y-type polyethylene glycol (40K)-glutamic acid dipeptide-rapamycin conjugate [LPR-3]
anti-tumor effect (in words) ([11]; 10 mg/kg counted with rapamycin, i.v. Q2W×2W): stronger antitumor activity than that of polyethylene glycol-rapamycin (LPR-1); also recorded: a certain anti-tumor effect | Days for delaying tumor growth (to 1000 mm^3) ([11]; 10 mg/kg i.v. Q2W×2W): >7 days | Tumor control rate T/C (%) ([11]; 10 mg/kg i.v. Q2W×2W, day 38, vs vehicle control): 47% | Tumor volume ([11]; day 24 after inoculation): 358 ± 62 mm^3 | Tumor volume ([11]; day 27 after inoculation): 455 ± 85 mm^3 | Tumor volume ([11]; day 31 after inoculation): 569 ± 100 mm^3 | Tumor volume ([11]; day 34 after inoculation): 754 ± 151 mm^3 | Tumor volume ([11]; day 38 after inoculation): 848 ± 178 mm^3
